Where two headings read alike, the source gives them in different places.
Tests used:
[1] = molecular target: T1, rhGal3 binding onto A549 cells (Homo sapiens, UniProt P17931); assay: Flow cytometry of rhGal3 binding to A549 cells and its inhibition; type: cell-based
T1 construct: made in house; host or cells: Escherichia coli BL21 (DE3)

SOCS1 = type: cell-based, human; conditions: 15 μg/ml, 1 h
RIG1 = type: cell-based, human
[2] = system: ERK, AKT, p38 MAPK, STAT1 and NF-κB phosphorylation in A549 cells; type: cell-based, human
A549 cells = type: cell-based, human; conditions: for extracellular cytokine levels: A549 cells, treatment alone vs untreated cells, FIG. 7
recombinant human Gal3 = molecular target: T2, recombinant human Gal3 (Homo sapiens, UniProt P17931); assay: Inhibition of hGal3 binding to asialofetuin (microtiter plate); conditions: biotinylated rhGal3 5 ug/ml pre-mixed with inhibitor; TDG 5 mM; Lac 50 mM; FIG. 12
T2 construct: made in house; host or cells: Escherichia coli BL21 (DE3)
Method: Ninety-six well microtiter plates were coated with 1 ug/well of asialofetuin (10 μg/ml in PBS, 100 ul each well) for 3 h at 37° C., washed and blocked with 3% BSA in PBS overnight at 4° C. […] The reaction was stopped with 1 M HCl and the optical density (OD) at 450 nm from each well was measured by SpectraMax 340 plate reader (Molecular Device).

[3] = system: SOCS1, SOCS3, SOCS4 expression in A549 cells; assay: SOCS expression in A549 cells incubated with rhGal3 with or without TDG (quantitative realtime PCR); type: cell-based, human
Method: A549 cells were grown in 12-well plates and incubated with 0˜30 μg/ml of rhGal3 for 1 hour. After washing, RNA was extracted from the cells and subjected to reverse-transcription, followed by quantitative realtime PCR with designed primers for SOCS1, SOCS3, SOCS4, and beta-actin. Ct values were calculated and the relative expression level was calculated as 2^(Ct actin−Ct target).

[4] = hGal3 10 μg/ml pre-mixed with 0~10 mM disaccharide
[5] = NeuK-treated A549 cells, 15 μg/ml
[6] = A549 cells pre-exposed to NeuK, 15 μg/ml
[7] = A549 cells, treatment alone, vs control

T1 sequence (P17931 whole entry): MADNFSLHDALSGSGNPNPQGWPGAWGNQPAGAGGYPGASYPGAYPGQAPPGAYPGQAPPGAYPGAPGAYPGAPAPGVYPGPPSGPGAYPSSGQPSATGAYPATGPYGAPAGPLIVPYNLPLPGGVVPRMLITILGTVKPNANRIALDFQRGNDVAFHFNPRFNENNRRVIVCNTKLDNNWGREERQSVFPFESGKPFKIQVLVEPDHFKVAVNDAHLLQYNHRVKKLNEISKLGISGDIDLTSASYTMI
T2 sequence (P17931 whole entry): as above

CC(=O)N[C@H]1C(O)O[C@H](CO)[C@H](O)[C@@H]1O[C@@H]1O[C@H](CO)[C@H](O)[C@H](O)[C@H]1O (stereo partly shown) [TF disaccharides, Galβ1,3GalNAc]
inhibition of hGal3 binding onto A549 cells (MFI) [1, 4]: inhibit the binding

rhGal1: recombinant human galectin-1
SOCS1 expression (SOCS1; A549 cells pre-treated with NeuK): returned to the control levels | SOCS1 expression, decrease (SOCS1; untreated A549 cells): 20-30% | RIG1 expression, increase (RIG1; NeuK-pretreated A549 cells, 15 μg/ml): about 12 fold | RIG1 expression, decreased to (RIG1; exposure alone, A549 cells, 15 μg/ml): about 50 % of the unexposed control | phosphorylation level of ERK [2, 5]: increased | phosphorylation level of STAT1 [2, 5]: increased | phosphorylation level of p38 [2, 5]: remained at the level of the NeuK-treated A549 control | phosphorylation level of AKT, decreased to ([2]; untreated A549 cells, 15 μg/ml): 50 % of the control level | IL-6 level in culture supernatant, increase (A549 cells; [6]): 4 fold | IL-8 level in culture supernatant, increase (A549 cells; [6]): 5 fold | IL-15 level in culture supernatant, increase (A549 cells; [6]): 25 fold | extracellular cytokine levels (A549 cells): the levels of IFNγ, IL-6, IL-8, and IL-10 increased

OC[C@H]1O[C@@H](S[C@@H]2O[C@H](CO)[C@H](O)[C@H](O)[C@H]2O)[C@H](O)[C@@H](O)[C@H]1O [TDG, thiodigalactoside]
inhibition of rhGal3 binding to asialofetuin (OD 450 nm) (recombinant human Gal3): partially inhibit | inhibition of hGal3 binding onto A549 cells (MFI) [1, 4]: inhibit the binding | inhibition of hGal3 binding onto A549 cells (MFI) ([1]; hGal3 pre-mixed with Lac 50 mM, TDG 50 mM or 10 mM): inhibit binding well | SOCS expression (SOCS1, SOCS3, SOCS4) ([3]; 30 μg rhGal3 pre-mixed with TDG 50 mM, one hour, FIG. 17): offset all the galectin's effect in suppressing SOCS expression | SOCS expression ([3]; disaccharide (TDG 50 mM) alone, one hour): some positive effect in SOCS expression

rhGal3: recombinant human galectin-3
SOCS expression (SOCS1, SOCS3, SOCS4) ([3]; 0~30 μg/ml rhGal3, 1 hour, FIG. 16): suppress SOCS expression in dose-dependent manner | SOCS1 expression, downregulated (SOCS1; untreated or NeuK-treated A549 cells): 60-70 % of the control levels | RIG1 expression, downregulated to (RIG1; NeuK treatment followed by exposure, 15 μg/ml): about 20 % of the unexposed controls | RIG1 expression, increase (RIG1; treatment alone, A549 cells): about 4 fold | phosphorylation level of AKT [2, 7]: up to 4 fold | phosphorylation level of ERK [2, 7]: increased | phosphorylation level of STAT1 [2, 7]: increased | phosphorylation level of p38 [2, 7]: remained unchanged | phosphorylation of p38, decrease ([2]; NeuK-treated A549 cells compared with effect on untreated cells): more than 50% | phosphorylation level of AKT [2, 5]: 1.5 fold | phosphorylation level of ERK [2, 5]: 3 fold | IL-1β, IL-10 and IL-12 levels in culture supernatant (A549 cells; [6]): had no effect | IL-6 level in culture supernatant, increase (A549 cells; [6]): 8 fold | IL-8 level in culture supernatant, increase (A549 cells; [6]): 15 fold | IL-15 level in culture supernatant, increase (A549 cells; [6]): 20 fold | extracellular cytokine levels (A549 cells): increased levels of IFNγ, TNFα, IL-10, IL-6, and IL-8

— US10905702B2 (priority 2016, dated 2021)
